Test results reported in PubChem BioAssay AID1918996 (Molecular Pharmacology Branch, DTP, NCI, 2023).
“And” between values parts separate entries of the source, which are not always exact repeats. Equal values may be shown once.

Tested on: 349418-098-R-PDC complex spheroid growth
Assay: Anticancer human tumor 349418-098-R-PDC patient-derived lung adenocarcinoma cell line growth inhibition [AhR]
Details: for viability, T/C: stronger effect = lower value
Summary of the method: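 Spheroids combined tumor cells with HUVEC endothelial cells and human MSCs as stroma. AhR antagonists were paired with standard or investigational drugs, each dosed in half-log steps down from near clinical Cmax, or from 10 microM where Cmax was unknown.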

[1] = curve of first compound, second compound 0.1 µM
[2] = curve of first compound, second compound 0.316 µM
[3] = curve of first compound, second compound 1 µM
[4] = curve of first compound, second compound 3.16 µM
[5] = curve of first compound, second compound 10 µM
[6] = second compound 0.1 µM, first compound 0.0316 µM
[7] = second compound 0.1 µM, first compound 0.1 µM
[8] = second compound 0.1 µM, first compound 0.316 µM
[9] = second compound 0.1 µM, first compound 1 µM
[10] = second compound 0.1 µM, first compound 3.16 µM
[11] = second compound 0.1 µM, first compound 10 µM
[12] = second compound 0.316 µM, first compound 0.0316 µM
[13] = second compound 0.316 µM, first compound 0.1 µM
[14] = second compound 0.316 µM, first compound 0.316 µM
[15] = second compound 0.316 µM, first compound 1 µM
[16] = second compound 0.316 µM, first compound 3.16 µM
[17] = second compound 0.316 µM, first compound 10 µM
[18] = second compound 1 µM, first compound 0.0316 µM
[19] = second compound 1 µM, first compound 0.1 µM
[20] = second compound 1 µM, first compound 0.316 µM
[21] = second compound 1 µM, first compound 1 µM
[22] = second compound 1 µM, first compound 3.16 µM
[23] = second compound 1 µM, first compound 10 µM
[24] = second compound 3.16 µM, first compound 0.0316 µM
[25] = second compound 3.16 µM, first compound 0.1 µM
[26] = second compound 3.16 µM, first compound 0.316 µM
[27] = second compound 3.16 µM, first compound 1 µM
[28] = second compound 3.16 µM, first compound 3.16 µM
[29] = second compound 3.16 µM, first compound 10 µM
[30] = second compound 10 µM, first compound 0.0316 µM
[31] = second compound 10 µM, first compound 0.1 µM
[32] = second compound 10 µM, first compound 0.316 µM
[33] = second compound 10 µM, first compound 1 µM
[34] = second compound 10 µM, first compound 3.16 µM
[35] = second compound 10 µM, first compound 10 µM
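Further: spheroids exposed to agents for seven days before luminescence viability read.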

Structure (SMILES) | IC50 [1] [µM] | IC50 [2] [µM] | IC50 [3] [µM] | IC50 [4] [µM] | IC50 [5] [µM] | viability, T/C [6] [%] | viability, T/C [7] [%] | viability, T/C [8] [%] | viability, T/C [9] [%] | viability, T/C [10] [%] | viability, T/C [11] [%] | viability, T/C [12] [%] | viability, T/C [13] [%] | viability, T/C [14] [%] | viability, T/C [18] [%] | viability, T/C [19] [%] | viability, T/C [24] [%] | viability, T/C [25] [%] | viability, T/C [30] [%] | viability, T/C [31] [%] | also measured
COc1ccc([C@@H](O)c2cc(-c3ncnc4cc(N5CCOCC5)ccc34)c(F)cc2Cl)nn1 + Cc1cncc(-c2nc(NCCc3c[nH]c4ccccc34)c3ncn(C(C)C)c3n2)c1 | 4.01 | 3.97 | 3.84 | < 0.0316 | < 0.0316 | 100 | 101 | 92.5 | 88.8 | 58.1 | 16.8 | 103 | 94.7 | 89.9 | 81 | 79.7 | 16.5 | 16.7 | 0.93 | 0.92 | viability, T/C [15]: 93.3%; viability, T/C [16]: 58.8%; viability, T/C [17]: 14.1%; viability, T/C [20]: 80.5%; viability, T/C [21]: 68.2%; viability, T/C [22]: 57.9%; viability, T/C [23]: 19.4%; viability, T/C [26]: 12.7%; viability, T/C [27]: 12.5%; viability, T/C [28]: 11.9%; viability, T/C [29]: 9.7%; viability, T/C [32]: 1.03%; viability, T/C [33]: 1.37%; viability, T/C [34]: 1.91%; viability, T/C [35]: 3.18%
CC1(C)CCC(CN2CCN(c3ccc(C(=O)NS(=O)(=O)c4ccc(NCC5CCOCC5)c([N+](=O)[O-])c4)c(Oc4cnc5[nH]ccc5c4)c3)CC2)=C(c2ccc(Cl)cc2)C1 |  |  |  |  |  |  |  |  |  |  |  |  |  |  |  |  |  |  |  |  | viability, T/C (compound 0.0316 µM): 97.2% and 117% and 104%; viability, T/C (compound 0.1 µM): 110% and 106% and 101%; viability, T/C (compound 0.316 µM): 102% and 92.4% and 105%; viability, T/C (compound 1 µM): 94.9% and 91.9% and 76.2%; viability, T/C (compound 3.16 µM): 106% and 100% and 68.8%; viability, T/C (compound 10 µM): 96.6% and 33.3% and 37.7%; IC50 (curve of compound): > 10 µM and 7.5 µM and 6.06 µM
Cn1ncnc1C1c2n[nH]c(=O)c3cc(F)cc(c23)NC1c1ccc(F)cc1 (configuration not stated) + Cc1cncc(-c2nc(NCCc3c[nH]c4ccccc34)c3ncn(C(C)C)c3n2)c1 | > 0.1 | > 0.1 | > 0.1 | < 0.000316 | < 0.000316 | 82.5 | 80.6 |  |  |  |  | 85.6 | 78.5 |  | 78.8 | 78.4 | 25.5 | 21.6 | 2.36 | 2.64 | viability, T/C (second compound 0.1 µM, first compound 0.000316 µM): 94.4%; viability, T/C (second compound 0.1 µM, first compound 0.001 µM): 93.9%; viability, T/C (second compound 0.1 µM, first compound 0.00316 µM): 92.2%; viability, T/C (second compound 0.1 µM, first compound 0.01 µM): 87.8%; viability, T/C (second compound 0.316 µM, first compound 0.000316 µM): 90.1%; viability, T/C (second compound 0.316 µM, first compound 0.001 µM): 98%; viability, T/C (second compound 0.316 µM, first compound 0.00316 µM): 85.7%; viability, T/C (second compound 0.316 µM, first compound 0.01 µM): 88%; viability, T/C (second compound 1 µM, first compound 0.000316 µM): 86.7%; viability, T/C (second compound 1 µM, first compound 0.001 µM): 81.6%; viability, T/C (second compound 1 µM, first compound 0.00316 µM): 89.8%; viability, T/C (second compound 1 µM, first compound 0.01 µM): 78.2%; viability, T/C (second compound 3.16 µM, first compound 0.000316 µM): 17.9%; viability, T/C (second compound 3.16 µM, first compound 0.001 µM): 23.4%; viability, T/C (second compound 3.16 µM, first compound 0.00316 µM): 23.8%; viability, T/C (second compound 3.16 µM, first compound 0.01 µM): 19.4%; viability, T/C (second compound 10 µM, first compound 0.000316 µM): 2.6%; viability, T/C (second compound 10 µM, first compound 0.001 µM): 2.33%; viability, T/C (second compound 10 µM, first compound 0.00316 µM): 3.01%; viability, T/C (second compound 10 µM, first compound 0.01 µM): 2.42%
CC1(C)CCC(CN2CCN(c3ccc(C(=O)NS(=O)(=O)c4ccc(NCC5CCOCC5)c([N+](=O)[O-])c4)c(Oc4cnc5[nH]ccc5c4)c3)CC2)=C(c2ccc(Cl)cc2)C1 + CC(CO)NC(=O)c1cc(-c2ccc(Cl)cc2)nn(-c2cnn(C)c2)c1=O | 6.64 | 4.53 | 5.47 | 3.02 | < 0.0316 | 77.7 | 89.9 | 96.2 | 76.9 | 82.5 | 32.2 | 85.2 | 81.1 | 70.2 | 89.3 | 97.4 | 80 | 86.8 | 45 | 54.1 | viability, T/C [15]: 66.9%; viability, T/C [16]: 65.9%; viability, T/C [17]: 27.8%; viability, T/C [20]: 80%; viability, T/C [21]: 65%; viability, T/C [22]: 79.2%; viability, T/C [23]: 28.2%; viability, T/C [26]: 77%; viability, T/C [27]: 71.4%; viability, T/C [28]: 49%; viability, T/C [29]: 24%; viability, T/C [32]: 48.9%; viability, T/C [33]: 48.5%; viability, T/C [34]: 48.2%; viability, T/C [35]: 26.6%
CC(C)c1c(-c2ccccc2)nc2c(C#N)c[nH]n2c1=O + Cc1cncc(-c2nc(NCCc3c[nH]c4ccccc34)c3ncn(C(C)C)c3n2)c1 | > 10 | > 10 | > 10 | < 0.0316 | < 0.0316 | 102 | 94.6 | 97.9 | 97.2 | 97 | 101 | 96.8 | 82.4 | 105 | 94.1 | 87 | 15.8 | 16.5 | 0.96 | 1.33 | viability, T/C [15]: 93.2%; viability, T/C [16]: 83.3%; viability, T/C [17]: 95.2%; viability, T/C [20]: 83.6%; viability, T/C [21]: 85.9%; viability, T/C [22]: 78.6%; viability, T/C [23]: 83.7%; viability, T/C [26]: 17.4%; viability, T/C [27]: 12.2%; viability, T/C [28]: 11.3%; viability, T/C [29]: 12.6%; viability, T/C [32]: 1.19%; viability, T/C [33]: 0.58%; viability, T/C [34]: 0.81%; viability, T/C [35]: 1.09%
